# Patent US20230148214A1, “INDAZOLES AND AZAINDAZOLES AS LRRK2 INHIBITORS” (ESCAPE Bio, Inc., priority 2020, published 2023)
# Legend:
# LRRK2 WT = molecular target: T1, LRRK2 WT (Homo sapiens, UniProt Q5S007); assay: LRRK2 Kinase Activity Assay (LanthaScreen TR-FRET), wild type; format: biochemical; conditions: recombinant wild type LRRK2, 25 μM ATP, 400 nM LRRKtide, 60 min
# T1 construct: purchased Life Technologies PR8604B
# How it was run: (§1)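 Recombinant wild-type or G2019S LRRK2 incubated with fluorescein-labeled LRRKtide (ERM-based) peptide, ATP and serially diluted compound for 60 min at room temperature.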
# LRRK2 G2019S = molecular target: T2, LRRK2 G2019S (Homo sapiens, UniProt Q5S007, G2019S); assay: LRRK2 Kinase Activity Assay (LanthaScreen TR-FRET), G2019S; format: biochemical; conditions: recombinant G2019S-LRRK2, 25 μM ATP, 400 nM LRRKtide, 60 min; class symbols
# T2 construct: purchased Life Technologies PV4881
# How it was run: as §1
# T1 sequence (Q5S007 whole entry): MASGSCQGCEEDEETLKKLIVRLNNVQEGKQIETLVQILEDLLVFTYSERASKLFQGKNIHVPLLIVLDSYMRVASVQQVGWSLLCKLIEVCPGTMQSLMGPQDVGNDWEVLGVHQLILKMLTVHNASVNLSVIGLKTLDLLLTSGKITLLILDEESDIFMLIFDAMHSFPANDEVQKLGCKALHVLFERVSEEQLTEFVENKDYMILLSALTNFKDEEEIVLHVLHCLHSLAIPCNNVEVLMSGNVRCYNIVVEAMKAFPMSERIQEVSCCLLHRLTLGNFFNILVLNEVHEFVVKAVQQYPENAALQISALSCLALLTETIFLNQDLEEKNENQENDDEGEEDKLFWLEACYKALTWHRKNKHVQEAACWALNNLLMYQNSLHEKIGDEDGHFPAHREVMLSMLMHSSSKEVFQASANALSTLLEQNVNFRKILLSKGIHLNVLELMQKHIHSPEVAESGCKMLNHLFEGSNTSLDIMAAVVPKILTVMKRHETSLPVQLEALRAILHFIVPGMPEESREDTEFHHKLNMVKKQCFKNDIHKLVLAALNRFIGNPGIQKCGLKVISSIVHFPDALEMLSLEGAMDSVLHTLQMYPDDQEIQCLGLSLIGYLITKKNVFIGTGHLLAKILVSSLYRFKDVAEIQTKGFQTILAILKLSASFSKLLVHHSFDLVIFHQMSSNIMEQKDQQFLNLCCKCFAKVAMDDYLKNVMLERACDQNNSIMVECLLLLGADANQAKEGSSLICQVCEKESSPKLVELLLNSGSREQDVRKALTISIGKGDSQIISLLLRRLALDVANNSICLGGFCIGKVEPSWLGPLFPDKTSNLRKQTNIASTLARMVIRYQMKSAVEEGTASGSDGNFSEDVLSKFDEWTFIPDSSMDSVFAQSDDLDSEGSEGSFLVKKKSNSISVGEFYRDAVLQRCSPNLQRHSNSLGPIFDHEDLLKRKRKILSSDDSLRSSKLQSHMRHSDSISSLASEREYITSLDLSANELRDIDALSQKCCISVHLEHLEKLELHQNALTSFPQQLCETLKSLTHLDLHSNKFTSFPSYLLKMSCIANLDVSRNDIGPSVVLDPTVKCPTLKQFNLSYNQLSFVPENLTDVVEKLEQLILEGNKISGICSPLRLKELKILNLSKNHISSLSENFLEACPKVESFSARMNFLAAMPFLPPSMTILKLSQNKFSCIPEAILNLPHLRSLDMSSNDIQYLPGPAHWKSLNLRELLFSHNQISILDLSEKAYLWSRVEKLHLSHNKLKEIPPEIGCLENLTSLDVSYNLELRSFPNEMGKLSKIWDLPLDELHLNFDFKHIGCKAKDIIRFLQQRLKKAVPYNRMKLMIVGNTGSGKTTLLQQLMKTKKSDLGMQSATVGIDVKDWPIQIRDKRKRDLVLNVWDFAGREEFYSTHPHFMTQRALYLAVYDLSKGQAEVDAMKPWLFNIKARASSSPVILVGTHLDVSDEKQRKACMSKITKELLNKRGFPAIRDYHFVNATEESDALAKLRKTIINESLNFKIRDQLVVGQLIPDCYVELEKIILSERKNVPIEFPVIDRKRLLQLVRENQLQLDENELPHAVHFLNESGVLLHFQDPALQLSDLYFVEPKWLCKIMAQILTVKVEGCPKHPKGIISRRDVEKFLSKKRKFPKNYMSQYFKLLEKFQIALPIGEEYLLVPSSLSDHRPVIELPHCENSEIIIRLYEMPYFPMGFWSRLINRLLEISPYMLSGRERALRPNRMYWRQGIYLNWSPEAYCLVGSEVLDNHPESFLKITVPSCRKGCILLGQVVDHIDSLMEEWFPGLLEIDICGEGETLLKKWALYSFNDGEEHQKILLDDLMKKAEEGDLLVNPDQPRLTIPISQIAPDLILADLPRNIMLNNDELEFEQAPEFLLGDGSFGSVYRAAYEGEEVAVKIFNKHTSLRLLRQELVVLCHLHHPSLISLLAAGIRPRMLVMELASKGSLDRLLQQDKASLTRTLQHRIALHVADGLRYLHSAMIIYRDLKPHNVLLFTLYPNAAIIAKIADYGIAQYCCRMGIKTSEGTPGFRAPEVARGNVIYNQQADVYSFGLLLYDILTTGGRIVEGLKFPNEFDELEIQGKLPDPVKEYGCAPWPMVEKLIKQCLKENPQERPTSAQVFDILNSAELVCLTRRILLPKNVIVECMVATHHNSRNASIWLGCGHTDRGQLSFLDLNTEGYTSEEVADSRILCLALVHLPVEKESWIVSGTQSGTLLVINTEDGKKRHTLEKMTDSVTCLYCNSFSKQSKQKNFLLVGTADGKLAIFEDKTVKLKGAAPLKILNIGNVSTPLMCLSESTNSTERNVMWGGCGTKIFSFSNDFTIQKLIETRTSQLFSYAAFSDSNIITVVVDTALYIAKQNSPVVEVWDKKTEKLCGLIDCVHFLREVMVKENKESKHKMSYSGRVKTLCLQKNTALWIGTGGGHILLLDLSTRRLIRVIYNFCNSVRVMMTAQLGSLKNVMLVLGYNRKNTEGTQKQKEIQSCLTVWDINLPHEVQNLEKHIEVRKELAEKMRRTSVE
# T2 sequence (Q5S007 whole entry G2019S): as the sequence (Q5S007 whole entry) above, with G2019S counted along it
smiles,measurement,setting,value
"N#Cc1cccc2c1[C@@H](Oc1ccc3[nH]nc(-c4cnco4)c3c1)CC2 (single isomer, unassigned) [Example 37, enantiomer 1, 3-((3-(Oxazol-5-yl)-1H-indazol-5-yl)oxy)-2,3-dihydro-1H-indene-4-carbonitrile]",IC50,LRRK2 WT; class symbols,< 100 nM
same,IC50,LRRK2 G2019S,< 100 nM
"N#Cc1ccc2c(c1)CCC[C@@H]2Oc1ccc2[nH]nc(-c3ccnc(N4CCOCC4)c3)c2c1 (single isomer, unassigned) [Example 39, enantiomer 1, 5-((3-(2-Morpholinopyridin-4-yl)-1H-indazol-5-yl)oxy)-5,6,7,8-tetrahydronaphthalene-2-carbonitrile]",IC50,LRRK2 WT; class symbols,< 100 nM
same,IC50,LRRK2 G2019S,< 100 nM
"COc1cc(-c2n[nH]c3ccc(N[C@H]4CCc5cc(C#N)ccc54)cc23)ccn1 (single isomer, unassigned) [Example 40, enantiomer 1, 1-((3-(2-Methoxypyridin-4-yl)-1H-indazol-5-yl)amino)-2,3-dihydro-1H-indene-5-carbonitrile]",IC50,LRRK2 WT; class symbols,100 to 1000 nM
same,IC50,LRRK2 G2019S,< 100 nM
"N#Cc1cc2c(nn1)[C@@H](Oc1ccc3[nH]nc(-c4cnco4)c3c1)CC2 (single isomer, unassigned) [Example 41, enantiomer 1, 7-((3-(Oxazol-5-yl)-1H-indazol-5-yl)oxy)-6,7-dihydro-5H-cyclopenta[c]pyridazine-3-carbonitrile]",IC50,LRRK2 WT; class symbols,< 100 nM
same,IC50,LRRK2 G2019S,< 100 nM
"N#Cc1ccc2c(c1)CC(F)(F)[C@@H]2Nc1ccc2[nH]nc(-c3cnco3)c2c1 (single isomer, unassigned) [Example 42, enantiomer 1, 2,2-Difluoro-1-((3-(oxazol-5-yl)-1H-indazol-5-yl)amino)-2,3-dihydro-1H-indene-5-carbonitrile]",IC50,LRRK2 WT; class symbols,< 100 nM
same,IC50,LRRK2 G2019S,< 100 nM
"Cc1n[nH]c2ccc(N[C@H]3CCCc4cc(C#N)ccc43)cc12 (single isomer, unassigned) [Example 43, enantiomer 1, 5-((3-Methyl-1H-indazol-5-yl)amino)-5,6,7,8-tetrahydronaphthalene-2-carbonitrile]",IC50,LRRK2 WT; class symbols,100 to 1000 nM
same,IC50,LRRK2 G2019S,< 100 nM
"Cc1n[nH]c2ccc(N[C@H]3CCCc4cc(C#N)ccc43)cc12 (single isomer, unassigned) [Example 43, enantiomer 2, 5-((3-Methyl-1H-indazol-5-yl)amino)-5,6,7,8-tetrahydronaphthalene-2-carbonitrile]",IC50,LRRK2 WT; class symbols,1000 to 10000 nM
same,IC50,LRRK2 G2019S,100 to 1000 nM
"N#Cc1ccc2c(c1)CCC[C@@H]2Nc1ccc2[nH]nc(-c3cncs3)c2c1 (single isomer, unassigned) [Example 44, 5-((3-(Thiazol-5-yl)-1H-indazol-5-yl)amino)-5,6,7,8-tetrahydronaphthalene-2-carbonitrile]",IC50,LRRK2 WT; class symbols,< 100 nM
same,IC50,LRRK2 G2019S,< 100 nM
"N#Cc1ccc2c(c1)CCC[C@@H]2Nc1ccc2[nH]nc(C3CCCCC3)c2c1 (single isomer, unassigned) [Example 45, 5-((3-Cyclohexyl-1H-indazol-5-yl)amino)-5,6,7,8-tetrahydronaphthalene-2-carbonitrile]",IC50,LRRK2 WT; numeric bound,> 10000 nM
same,IC50,LRRK2 G2019S,1000 to 10000 nM
"Cn1cccc(-c2n[nH]c3ccc(N[C@H]4CCCc5cc(C#N)ccc54)cc23)c1=O (single isomer, unassigned) [Example 46, 5-((3-(1-Methyl-2-oxo-1,2-dihydropyridin-3-yl)-1H-indazol-5-yl)amino)-5,6,7,8-tetrahydronaphthalene-2-carbonitrile]",IC50,LRRK2 WT; numeric bound,> 10000 nM
same,IC50,LRRK2 G2019S,100 to 1000 nM
"N#Cc1nc2c(s1)[C@@H](Nc1ccc3[nH]nc(-c4cnco4)c3c1)CCC2 (single isomer, unassigned) [Example 47, enantiomer 1, 7-((3-(Oxazol-5-yl)-1H-indazol-5-yl)amino)-4,5,6,7-tetrahydrobenzo[d]thiazole-2-carbonitrile]",IC50,LRRK2 WT; class symbols,100 to 1000 nM
same,IC50,LRRK2 G2019S,100 to 1000 nM
"N#Cc1nc2c(s1)[C@@H](Nc1ccc3[nH]nc(-c4cnco4)c3c1)CCC2 (single isomer, unassigned) [Example 47, enantiomer 2, 7-((3-(Oxazol-5-yl)-1H-indazol-5-yl)amino)-4,5,6,7-tetrahydrobenzo[d]thiazole-2-carbonitrile]",IC50,LRRK2 WT; class symbols,< 100 nM
same,IC50,LRRK2 G2019S,< 100 nM
"N#Cc1cnc2c(c1)C1CC1[C@@H]2Nc1ccc2[nH]nc(-c3cnco3)c2c1 (single isomer, unassigned) [Example 48, enantiomer 1, 6-((3-(Oxazol-5-yl)-1H-indazol-5-yl)amino)-4b,5,5a,6-tetrahydrocyclopropa[3,4]cyclopenta[1,2-b]pyridine-3-carbonitrile]",IC50,LRRK2 WT; class symbols,< 100 nM
same,IC50,LRRK2 G2019S,< 100 nM
"N#Cc1cnc2c(c1)CCC[C@@H]2Nc1ccc2[nH]nc(-c3cnn(C(F)F)c3)c2c1 (single isomer, unassigned) [Example 49, enantiomer 1, 8-((3-(1-(Difluoromethyl)-1H-pyrazol-4-yl)-1H-indazol-5-yl)amino)-5,6,7,8-tetrahydroquinoline-3-carbonitrile]",IC50,LRRK2 WT; class symbols,< 100 nM
same,IC50,LRRK2 G2019S,< 100 nM
"N#Cc1cnc2c(c1)CCC[C@@H]2Nc1ccc2[nH]nc(-c3cnn(C(F)F)c3)c2c1 (single isomer, unassigned) [Example 49, enantiomer 2, 8-((3-(1-(Difluoromethyl)-1H-pyrazol-4-yl)-1H-indazol-5-yl)amino)-5,6,7,8-tetrahydroquinoline-3-carbonitrile]",IC50,LRRK2 WT; class symbols,100 to 1000 nM
same,IC50,LRRK2 G2019S,< 100 nM
"Cc1c(C#N)ccc2c1CC[C@@H]2Oc1ccc2[nH]nc(-c3cnn(C(F)F)c3)c2c1 (single isomer, unassigned) [Example 50, enantiomer 1, 1-((3-(1-(Difluoromethyl)-1H-pyrazol-4-yl)-1H-indazol-5-yl)oxy)-4-methyl-2,3-dihydro-1H-indene-5-carbonitrile]",IC50,LRRK2 WT; class symbols,< 100 nM
same,IC50,LRRK2 G2019S,< 100 nM
"Cc1c(C#N)ccc2c1CC[C@@H]2Oc1ccc2[nH]nc(-c3cnn(C(F)F)c3)c2c1 (single isomer, unassigned) [Example 50, enantiomer 2, 1-((3-(1-(Difluoromethyl)-1H-pyrazol-4-yl)-1H-indazol-5-yl)oxy)-4-methyl-2,3-dihydro-1H-indene-5-carbonitrile]",IC50,LRRK2 WT; class symbols,< 100 nM
same,IC50,LRRK2 G2019S,100 to 1000 nM
"N#Cc1ccc2c(c1F)CC[C@@H]2Oc1ccc2[nH]nc(-c3cnn(C(F)F)c3)c2c1 (single isomer, unassigned) [Example 51, enantiomer 1, 1-((3-(1-(Difluoromethyl)-1H-pyrazol-4-yl)-1H-indazol-5-yl)oxy)-4-fluoro-2,3-dihydro-1H-indene-5-carbonitrile]",IC50,LRRK2 WT; class symbols,< 100 nM
same,IC50,LRRK2 G2019S,< 100 nM
"Cc1c(C#N)ccc2c1CC[C@@H]2Nc1ccc2[nH]nc(-c3cnn(C(F)F)c3)c2c1 (single isomer, unassigned) [Example 52, enantiomer 1, 1-((3-(1-(Difluoromethyl)-1H-pyrazol-4-yl)-1H-indazol-5-yl)amino)-4-methyl-2,3-dihydro-1H-indene-5-carbonitrile]",IC50,LRRK2 WT; class symbols,< 100 nM
same,IC50,LRRK2 G2019S,< 100 nM
"N#Cc1ccc2c(c1F)CC[C@H]2Nc1ccc2[nH]nc(-c3cnn(C(F)F)c3)c2c1 (single isomer, unassigned) [Example 53, enantiomer 1, 1-((3-(1-(Difluoromethyl)-1H-pyrazol-4-yl)-1H-indazol-5-yl)amino)-4-fluoro-2,3-dihydro-1H-indene-5-carbonitrile]",IC50,LRRK2 WT; class symbols,< 100 nM
same,IC50,LRRK2 G2019S,< 100 nM
"N#Cc1ccc2c(c1F)CC[C@H]2Nc1ccc2[nH]nc(-c3cnn(C(F)F)c3)c2c1 (single isomer, unassigned) [Example 53, enantiomer 2, 1-((3-(1-(Difluoromethyl)-1H-pyrazol-4-yl)-1H-indazol-5-yl)amino)-4-fluoro-2,3-dihydro-1H-indene-5-carbonitrile]",IC50,LRRK2 WT; class symbols,100 to 1000 nM
same,IC50,LRRK2 G2019S,< 100 nM
"N#Cc1ccc2c(c1)CCC[C@@H]2Nc1ccc2[nH]nc(C3=CCCCC3)c2c1 (single isomer, unassigned) [Example 54, 5-((3-(Cyclohex-1-en-1-yl)-1H-indazol-5-yl)amino)-5,6,7,8-tetrahydronaphthalene-2-carbonitrile]",IC50,LRRK2 WT; class symbols,1000 to 10000 nM
same,IC50,LRRK2 G2019S,100 to 1000 nM
"N#Cc1ccc2c(c1)CCC[C@@H]2Nc1ccc2[nH]nc(-c3ccc(C(=O)O)cc3)c2c1 (single isomer, unassigned) [Example 55, 4-(5-((6-Cyano-1,2,3,4-tetrahydronaphthalen-1-yl)amino)-1H-indazol-3-yl)benzoic acid]",IC50,LRRK2 WT; class symbols,< 100 nM
same,IC50,LRRK2 G2019S,< 100 nM
"Cn1cc2ccc(-c3n[nH]c4ccc(N[C@H]5CCCc6cc(C#N)ccc65)cc34)cc2n1 (single isomer, unassigned) [Example 56, 5-((2′-Methyl-1H,2′H-[3,6′-biindazol]-5-yl)amino)-5,6,7,8-tetrahydronaphthalene-2-carbonitrile]",IC50,LRRK2 WT; class symbols,1000 to 10000 nM
same,IC50,LRRK2 G2019S,100 to 1000 nM
"CS(=O)(=O)c1cccc(-c2n[nH]c3ccc(N[C@H]4CCCc5cc(C#N)ccc54)cc23)c1 (single isomer, unassigned) [Example 57, 5-((3-(3-(Methylsulfonyl)phenyl)-1H-indazol-5-yl)amino)-5,6,7,8-tetrahydronaphthalene-2-carbonitrile]",IC50,LRRK2 WT; class symbols,< 100 nM
same,IC50,LRRK2 G2019S,< 100 nM
"COc1cc(OC)cc(-c2n[nH]c3ccc(N[C@H]4CCCc5cc(C#N)ccc54)cc23)c1 (single isomer, unassigned) [Example 58, 5-((3-(3,5-Dimethoxyphenyl)-1H-indazol-5-yl)amino)-5,6,7,8-tetrahydronaphthalene-2-carbonitrile]",IC50,LRRK2 WT; class symbols,100 to 1000 nM
same,IC50,LRRK2 G2019S,< 100 nM
"Cc1ncc(-c2n[nH]c3ccc(N[C@H]4CCCc5cc(C#N)ccc54)cc23)o1 (single isomer, unassigned) [Example 60, 5-((3-(2-Methyloxazol-5-yl)-1H-indazol-5-yl)amino)-5,6,7,8-tetrahydronaphthalene-2-carbonitrile]",IC50,LRRK2 WT; class symbols,< 100 nM
same,IC50,LRRK2 G2019S,< 100 nM
